Laboratory results reported in ChEMBL document CHEMBL5506062, “Discovery and Optimization of N-Arylated Tetracyclic Dicarboximides That Target Primary Glioma Stem-like Cells” (J Med Chem, 2024).

Key:
Assay type in all cases: ADME, organism-based
[1] = AUClast in female CD-1 mouse brain at 10 mg/kg, ip measured after 10 to 1440 mins by LC-MS/MS analysis; conditions: in vivo
[2] = AUClast in female CD-1 mouse plasma at 10 mg/kg, ip measured after 10 to 1440 mins by LC-MS/MS analysis
[3] = Tmax in female CD-1 mouse plasma at 10 mg/kg, ip measured after 10 to 1440 mins by LC-MS/MS analysis
[4] = Cmax in female CD-1 mouse plasma at 10 mg/kg, ip measured after 10 to 1440 mins by LC-MS/MS analysis
[5] = Tmax in female CD-1 mouse brain at 10 mg/kg, ip measured after 10 to 1440 mins by LC-MS/MS analysis
[6] = Cmax in female CD-1 mouse brain at 10 mg/kg, ip measured after 10 to 1440 mins by LC-MS/MS analysis
[7] = Ratio of drug concentration in brain to plasma in female CD-1 mouse at 10 mg/kg, ip measured after 10 to 1440 mins by LC-MS/MS analysis; conditions: brain and plasma, read-out: K(p,uu,brain)
[8] = Cmax in female CD-1 mouse plasma at 20 mg/kg, po measured after 0 to 1440 mins by LC-MS/MS analysis
[9] = Oral bioavailability in female CD-1 mouse brain at 20 mg/kg measured after 0 to 1440 mins by LC-MS/MS analysis
[10] = Cmax in female CD-1 mouse brain at 5 mg/kg, iv measured after 0 to 1440 mins by LC-MS/MS analysis
[11] = Cmax in female CD-1 mouse brain at 20 mg/kg, po measured at 90 mins by LC-MS/MS analysis
[12] = AUClast in female CD-1 mouse plasma at 5 mg/kg, iv measured after 0 to 1440 mins by LC-MS/MS analysis
[13] = Tmax in female CD-1 mouse plasma at 20 mg/kg, po measured after 0 to 1440 mins by LC-MS/MS analysis
[14] = Drug concentration in female CD-1 mouse plasma at 20 mg/kg, po measured at 30 mins by LC-MS/MS analysis
[15] = Tmax in female CD-1 mouse brain at 5 mg/kg, iv measured after 0 to 1440 mins by LC-MS/MS analysis
[16] = Drug concentration in female CD-1 mouse brain at 20 mg/kg, po measured at 30 mins by LC-MS/MS analysis; conditions: read-out: Ct
[17] = Cmax in female CD-1 mouse brain at 20 mg/kg, po measured after 0 to 1440 mins by LC-MS/MS analysis
[18] = Oral bioavailability in female CD-1 mouse plasma at 20 mg/kg measured after 0 to 1440 mins by LC-MS/MS analysis
[19] = Tmax in female CD-1 mouse plasma at 5 mg/kg, iv measured after 0 to 1440 mins by LC-MS/MS analysis
[20] = AUClast in female CD-1 mouse plasma at 20 mg/kg, po measured after 0 to 1440 mins by LC-MS/MS analysis
[21] = AUClast in female CD-1 mouse brain at 20 mg/kg, po measured after 0 to 1440 mins by LC-MS/MS analysis; conditions: in vivo
[22] = AUClast in female CD-1 mouse brain at 5 mg/kg, iv measured after 0 to 1440 mins by LC-MS/MS analysis; conditions: in vivo
[23] = Tmax in female CD-1 mouse brain at 20 mg/kg, po measured after 0 to 1440 mins by LC-MS/MS analysis
[24] = Cmax in female CD-1 mouse plasma at 5 mg/kg, iv measured after 0 to 1440 mins by LC-MS/MS analysis
[25] = Drug concentration in female CD-1 mouse liver at 20 mg/kg, po measured at 30 mins by LC-MS/MS analysis; conditions: read-out: Ct

Q: For COc1ccc(C(=O)C2CC2c2ccc(N3C(=O)[C@@H]4[C@@H]5C=C[C@@H]([C@H]6C[C@@H]56)[C@@H]4C3=O)cc2)cc1 (stereo partly specified), which AUClast [1] is on record?
A: The AUClast was 294638 ng·min/g.

Q: What about the AUC(0-t) [2] of the same molecule?
A: Its AUC(0-t) is 4350 ng·h/mL.

Q: What about the Tmax [3] of the same molecule?
A: Its Tmax is 10 min.

Q: And the Cmax [4]?
A: The Cmax was 887 ng/mL.

Q: And the Tmax [5]?
A: Its Tmax is 30 min.

Q: What about the Cmax [6] of the same molecule?
A: Its Cmax is 992 ng/g.

Q: What about the Kp uu [7] of the same molecule?
A: The Kp uu was 1.13.

Q: Which AUClast [1] does the source give for O=C(COc1cnc(N2C(=O)[C@@H]3[C@@H]4C=C[C@@H]([C@H]5C[C@@H]45)[C@@H]3C2=O)nc1)c1ccc(Cl)c(Cl)c1 here?
A: The AUClast was 83823 ng·min/g.

Q: What about the AUC(0-t) [2] of the same molecule?
A: The AUC(0-t) was 4780 ng·h/mL.

Q: What about the Tmax [3] of the same molecule?
A: Its Tmax is 10 min.

Q: And the Cmax [4]?
A: Its Cmax is 3440 ng/mL.

Q: What about the Tmax [5] of the same molecule?
A: The Tmax was 30 min.

Q: What about the Cmax [6] of the same molecule?
A: Its Cmax is 978 ng/g.

Q: What about the Kp uu [7] of the same molecule?
A: The Kp uu was 0.29.

Q: With O=C(COc1ccc(N2C(=O)[C@@H]3[C@@H]4C=C[C@@H]([C@H]5C[C@@H]45)[C@@H]3C2=O)cc1)c1cc(Cl)cc(Cl)c1 as the molecule, how does the Cmax [8] read?
A: The Cmax was 3400 ng/mL.

Q: And the AUClast [1]?
A: Its AUClast is 720503 ng·min/g.

Q: What about the AUC(0-t) [2] of the same molecule?
A: The AUC(0-t) was 4830 ng·h/mL.

Q: What about the bioavailability [9] of the same molecule?
A: The bioavailability was 58%.

Q: What about the Cmax [10] of the same molecule?
A: Its Cmax is 3260 ng/g.

Q: What about the Tmax [3] of the same molecule?
A: The Tmax was 30 min.

Q: And the Cmax at […] [11]?
A: Its Cmax at […] is 2380 ng/g.

Q: And the AUC(0-t) [12]?
A: Its AUC(0-t) is 14800 ng·h/mL.

Q: And the Tmax [13]?
A: Its Tmax is 30 min.

Q: And the concentration at 0.5 h [14]?
A: The concentration at 0.5 h was 1430 ng/mL.

Q: And the Cmax [4]?
A: Its Cmax is 1300 ng/mL.

Q: And the Tmax [15]?
A: The Tmax was 5 min.

Q: And the concentration at 0.5 h [16]?
A: Its concentration at 0.5 h is 1160 ng/g.

Q: What about the Tmax [5] of the same molecule?
A: The Tmax was 90 min.

Q: And the Cmax [17]?
A: The Cmax was 2380 ng/g.

Q: What about the bioavailability [18] of the same molecule?
A: Its bioavailability is 39%.

Q: What about the Tmax [19] of the same molecule?
A: Its Tmax is 5 min.

Q: What about the AUC(0-t) [20] of the same molecule?
A: The AUC(0-t) was 23100 ng·h/mL.

Q: What about the AUClast [21] of the same molecule?
A: Its AUClast is 1774789 ng·min/g.

Q: And the Cmax [6]?
A: The Cmax was 2530 ng/g.

Q: And the AUClast [22]?
A: Its AUClast is 767638 ng·min/g.

Q: And the Tmax [23]?
A: Its Tmax is 90 min.

Q: What about the Cmax [24] of the same molecule?
A: Its Cmax is 12000 ng/mL.

Q: And the concentration at 0.5 h [25]?
A: The concentration at 0.5 h was 11500 ng/g.

Q: And the Kp uu [7]?
A: The Kp uu was 2.49.

Q: For COc1ccc(C(=O)C2CC2c2ccc(N3C(=O)[C@@H]4[C@@H]5C=C[C@@H]([C@H]6C[C@@H]56)[C@@H]4C3=O)c(F)c2)cc1Cl (stereo partly specified), which AUClast [1] is on record?
A: The AUClast was 220405 ng·min/g.

Q: And the AUC(0-t) [2]?
A: Its AUC(0-t) is 7340 ng·h/mL.

Q: What about the Tmax [3] of the same molecule?
A: Its Tmax is 30 min.

Q: And the Cmax [4]?
A: The Cmax was 1970 ng/mL.

Q: And the Tmax [5]?
A: Its Tmax is 30 min.

Q: And the Cmax [6]?
A: The Cmax was 1110 ng/g.

Q: And the Kp uu [7]?
A: The Kp uu was 0.5.
